Results on eleven molecules are retold here after ChEMBL document CHEMBL1201862, “PubChem BioAssay data set” (2004).

Assay [1] can be described thus: Luminescence Cell-Based Dose Response to Identify Activators of 5'UTR Stem-Loop Driven Prion Protein mRNA Translation in H4-C Neuroglioblastoma Cells. [Related pubchem assays: 1829 (Project Summary), 1814 (Primary HTS)]. The format is functional.
Assay [2] can be described thus: Luminescence Cell-Based Dose Response to Identify Activators of Luciferase Translation or Activity in H4-C Neuroglioblastoma Cells. [Related pubchem assays: 1829 (Project Summary), 1814 (Primary HTS)]. The format is functional.
The nature of assay [3]: Luminescence Cell-Based Dose Response HTS to Identify Activators of Luciferase Translation or Activity in H4 […] Cells. [Related pubchem assays: 1829 (Project Summary), 1814 (Primary HTS)]. The format is functional.
Assay [4] in a line: Luminescence Cell-Based Dose Confirmation to Identify Activators of 5'UTR Stem-Loop Driven Alpha-Synuclein mRNA Translation in H4 Neuroglioblastoma Cells. [Related pubchem assays: 1829 (Project Summary), 1814 (Primary HTS)]. The format is functional.
Assay [5] deals with T1, Estrogen receptor beta (Homo sapiens, UniProt Q92731).
Assay [6] has as its target T1, Estrogen receptor beta. As to the kind of experiment: blockers of SRC-3 recruitment to ERβ – biochemical, ELISA, streptavidin-HRP readout, orthogonal assay, confirmation (AID 1060).
For the next assay, the target named is T2, Protein skinhead-1 (Caenorhabditis elegans, UniProt P34707).
T2 sequence (P34707 whole entry): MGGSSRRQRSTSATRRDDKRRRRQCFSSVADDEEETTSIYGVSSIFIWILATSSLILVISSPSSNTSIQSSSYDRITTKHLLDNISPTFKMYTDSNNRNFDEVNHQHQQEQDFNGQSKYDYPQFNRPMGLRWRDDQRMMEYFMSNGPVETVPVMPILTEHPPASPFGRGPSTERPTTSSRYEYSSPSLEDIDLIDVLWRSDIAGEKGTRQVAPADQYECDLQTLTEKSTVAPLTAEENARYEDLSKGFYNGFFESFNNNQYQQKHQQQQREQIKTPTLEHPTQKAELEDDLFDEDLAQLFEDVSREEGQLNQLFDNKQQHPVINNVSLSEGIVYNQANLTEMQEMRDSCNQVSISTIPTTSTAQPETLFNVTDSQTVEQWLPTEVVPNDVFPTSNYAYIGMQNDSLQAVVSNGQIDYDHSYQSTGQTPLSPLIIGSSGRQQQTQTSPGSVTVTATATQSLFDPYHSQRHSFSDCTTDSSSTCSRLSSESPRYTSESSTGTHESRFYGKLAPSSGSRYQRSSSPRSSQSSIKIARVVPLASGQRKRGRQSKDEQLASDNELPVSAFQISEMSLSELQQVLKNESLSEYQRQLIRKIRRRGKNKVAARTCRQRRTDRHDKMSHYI
The format is functional.

The target in another assay is T3, NADPH oxidase 1 (Homo sapiens, UniProt Q9Y5S8).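 Also: Cell-based assay with luminescence read-out, IC50 derived from inhibitor dose-response curves; intracellular ROS from endogenous NOX1 in intact HT29 colon cancer cells; potency of inhibitors that lower the ROS luminescence signal.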
T3 sequence (Q9Y5S8 whole entry): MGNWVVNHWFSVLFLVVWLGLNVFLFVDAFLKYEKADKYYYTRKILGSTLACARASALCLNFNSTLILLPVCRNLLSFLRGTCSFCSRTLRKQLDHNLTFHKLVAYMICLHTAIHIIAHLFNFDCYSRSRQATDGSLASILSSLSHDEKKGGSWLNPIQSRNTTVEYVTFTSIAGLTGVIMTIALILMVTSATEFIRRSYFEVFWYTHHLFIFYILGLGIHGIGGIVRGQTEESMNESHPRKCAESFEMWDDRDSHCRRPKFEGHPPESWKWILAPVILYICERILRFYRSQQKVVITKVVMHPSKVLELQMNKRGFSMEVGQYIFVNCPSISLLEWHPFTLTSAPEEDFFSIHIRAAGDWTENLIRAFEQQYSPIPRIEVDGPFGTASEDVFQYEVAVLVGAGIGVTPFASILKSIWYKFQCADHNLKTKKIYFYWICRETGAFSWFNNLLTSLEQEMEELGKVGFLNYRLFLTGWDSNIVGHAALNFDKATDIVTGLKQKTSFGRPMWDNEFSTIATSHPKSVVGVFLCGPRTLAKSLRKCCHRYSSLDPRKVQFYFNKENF
The format is functional, cell-based.

Assay [7] in a line: Trypanosoma cruzi growth suppression in host cells – NIH3T3 host cells, beta-gal luminescence, confirmation (AID 2044).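 Also: intracellular parasites grown in NIH/3T3 mouse fibroblasts as host cells; luminescent beta-galactosidase reporter signal from transgenic T. cruzi replicating inside host cells; inhibitors lower the luminescence signal.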 The format is functional, cell-based.
A short description of assay [8]: NIH3T3 cell viability loss – ATP luminescence, mouse fibroblasts, counter-screen, dose response (AID 2010).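 Also: cells exposed to compound for about 90 hours before reading.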 The format is functional, cell-based.
For the next assay, the target named is Ephrin type-A receptor 4 (Mus musculus, UniProt Q03137). As to the kind of experiment: EphA4 ligand-binding antagonists – biochemical, colorimetric, mouse EphA4, primary screen (AID 689). The format is functional.
In assay [9] the target is T4, Ubiquitin-conjugating enzyme E2 N (Homo sapiens, UniProt P61088).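 Also: Dose-response confirmation in a TR-FRET assay detecting UBC13-driven polyubiquitin chain formation, inhibition measured.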
T4 sequence (P61088 whole entry): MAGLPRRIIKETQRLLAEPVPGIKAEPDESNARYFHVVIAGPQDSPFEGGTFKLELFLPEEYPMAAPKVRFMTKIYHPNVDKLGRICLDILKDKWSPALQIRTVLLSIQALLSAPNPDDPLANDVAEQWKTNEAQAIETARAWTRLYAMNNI
The format is functional.

In assay [10] the target is E3 ubiquitin-protein ligase Mdm2 (Homo sapiens, UniProt Q00987). As to the kind of experiment: MDM2-luc reporter signal enhancers, multi-concentration potency testing, MDM2 ubiquitin-protein ligase inhibitor program, whole-cell format, luminescence detection, 384-well microplate (AID 1394).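 Also: MDM2 E3 inhibitors raise luminescence so EC50 is for signal enhancement.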 The format is functional.
The target in assay [11] is T5, Short transient receptor potential channel 4 (Mus musculus, UniProt Q9QUQ5).
T5 sequence (Q9QUQ5 whole entry): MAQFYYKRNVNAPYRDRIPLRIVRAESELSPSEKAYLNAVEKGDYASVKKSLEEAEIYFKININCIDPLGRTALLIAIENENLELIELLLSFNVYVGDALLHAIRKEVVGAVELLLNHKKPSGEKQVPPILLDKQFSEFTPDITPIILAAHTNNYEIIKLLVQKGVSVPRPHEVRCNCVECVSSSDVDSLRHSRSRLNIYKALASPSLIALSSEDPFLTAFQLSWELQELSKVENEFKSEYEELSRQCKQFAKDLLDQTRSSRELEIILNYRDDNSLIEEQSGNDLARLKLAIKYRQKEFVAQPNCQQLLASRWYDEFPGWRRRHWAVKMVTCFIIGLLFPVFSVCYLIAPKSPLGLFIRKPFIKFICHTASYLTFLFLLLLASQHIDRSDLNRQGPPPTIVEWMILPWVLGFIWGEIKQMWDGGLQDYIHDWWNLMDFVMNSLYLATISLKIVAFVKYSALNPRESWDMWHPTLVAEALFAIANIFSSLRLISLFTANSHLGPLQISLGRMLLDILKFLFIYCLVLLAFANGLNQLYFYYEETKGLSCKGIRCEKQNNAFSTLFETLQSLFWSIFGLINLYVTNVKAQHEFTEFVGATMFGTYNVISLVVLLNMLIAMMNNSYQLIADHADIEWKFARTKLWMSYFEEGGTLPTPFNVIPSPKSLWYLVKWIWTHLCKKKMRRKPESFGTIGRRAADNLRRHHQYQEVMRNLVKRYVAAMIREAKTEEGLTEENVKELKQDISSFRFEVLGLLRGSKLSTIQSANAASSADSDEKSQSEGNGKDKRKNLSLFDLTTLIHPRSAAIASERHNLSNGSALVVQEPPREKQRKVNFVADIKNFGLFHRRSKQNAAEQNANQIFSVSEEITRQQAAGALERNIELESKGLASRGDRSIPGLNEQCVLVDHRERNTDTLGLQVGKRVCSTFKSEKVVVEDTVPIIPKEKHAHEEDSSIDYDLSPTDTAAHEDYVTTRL
As to the kind of experiment: calcium entry via TRPC4 opening agents – cell-based, HEK293 TRPC4/mu-opioid, Fluo-4 calcium, dose response (AID 434937). The format is functional.

Assay [12] deals with Guanyl-specific ribonuclease T1 (Aspergillus oryzae (strain ATCC 42149 / RIB 40), UniProt P00651). Kind of assay: inhibition of ribonuclease T1 activity – biochemical, fluorescence polarization, 1536-well, counter-screen for TPT1 inhibitor project, dose response (AID 2167).
Assay [13] deals with T6, RNA-binding protein pos-1 (Caenorhabditis elegans, UniProt G5EF15).
T6 sequence (G5EF15 whole entry): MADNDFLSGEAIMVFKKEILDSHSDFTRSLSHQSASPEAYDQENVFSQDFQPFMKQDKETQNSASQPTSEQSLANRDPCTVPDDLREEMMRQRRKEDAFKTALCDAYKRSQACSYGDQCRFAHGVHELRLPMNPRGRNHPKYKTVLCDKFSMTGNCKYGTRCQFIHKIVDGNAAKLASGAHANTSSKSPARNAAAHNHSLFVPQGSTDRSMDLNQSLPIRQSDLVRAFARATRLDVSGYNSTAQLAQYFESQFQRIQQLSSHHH
As to the kind of experiment: disruptors of C. elegans POS-1 RNA interaction – biochemical, fluorescence polarization, dose response (AID 1964).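 Also: purified POS-1 fused to maltose binding protein made in E. coli; potency of compounds blocking POS-1 binding to fluorescent RNA.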

In assay [14] the target is T7, Zinc finger protein mex-5 (Caenorhabditis elegans, UniProt Q9XUB2).
T7 sequence (Q9XUB2 whole entry): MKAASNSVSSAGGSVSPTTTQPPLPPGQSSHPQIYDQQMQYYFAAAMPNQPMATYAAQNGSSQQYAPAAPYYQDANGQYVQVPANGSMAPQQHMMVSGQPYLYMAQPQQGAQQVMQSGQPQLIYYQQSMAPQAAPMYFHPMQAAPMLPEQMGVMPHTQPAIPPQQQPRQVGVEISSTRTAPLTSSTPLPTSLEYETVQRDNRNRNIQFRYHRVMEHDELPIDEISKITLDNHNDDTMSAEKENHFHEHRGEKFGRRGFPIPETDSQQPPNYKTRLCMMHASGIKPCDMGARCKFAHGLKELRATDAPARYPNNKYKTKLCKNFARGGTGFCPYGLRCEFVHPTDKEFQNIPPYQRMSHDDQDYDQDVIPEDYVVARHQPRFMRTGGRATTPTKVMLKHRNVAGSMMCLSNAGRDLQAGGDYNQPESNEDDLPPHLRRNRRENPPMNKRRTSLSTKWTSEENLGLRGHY
As to the kind of experiment: potency of MEX-5 RNA-binding blockers – biochemical, C. elegans, fluorescence polarization, dose response (AID 1960).

Assay [15] concerns the target Likely tRNA 2'-phosphotransferase (Candida albicans (strain SC5314 / ATCC MYA-2876) (Yeast), UniProt Q5A7N4). Kind of assay: inhibition of Candida TPT1 enzyme activity – biochemical, fluorescence polarization, dose response (AID 2160).
For another assay, the system named is H4. Kind of assay: Luminescence Cell-Based Dose Response HTS to Identify Activators of 5'UTR Stem-Loop Driven Prion Protein mRNA Translation in H4 Neuroglioblastoma Cells. [Related pubchem assays: 1829 (Project Summary), 1814 (Primary HTS)]. The note with it: Homo sapiens. The format is functional.
Assay [16] is described as follows: Luminescence Cell-Based Dose Confirmation HTS to Identify Activators of 5'UTR Stem-Loop Driven Alpha-Synuclein mRNA Translation in H4 Neuroglioblastoma Cells. [Related pubchem assays: 1829 (Project Summary), 1814 (Primary HTS)]. The format is functional.

Active and inactive are the calls of the source.

T1 sequence (Q92731 whole entry): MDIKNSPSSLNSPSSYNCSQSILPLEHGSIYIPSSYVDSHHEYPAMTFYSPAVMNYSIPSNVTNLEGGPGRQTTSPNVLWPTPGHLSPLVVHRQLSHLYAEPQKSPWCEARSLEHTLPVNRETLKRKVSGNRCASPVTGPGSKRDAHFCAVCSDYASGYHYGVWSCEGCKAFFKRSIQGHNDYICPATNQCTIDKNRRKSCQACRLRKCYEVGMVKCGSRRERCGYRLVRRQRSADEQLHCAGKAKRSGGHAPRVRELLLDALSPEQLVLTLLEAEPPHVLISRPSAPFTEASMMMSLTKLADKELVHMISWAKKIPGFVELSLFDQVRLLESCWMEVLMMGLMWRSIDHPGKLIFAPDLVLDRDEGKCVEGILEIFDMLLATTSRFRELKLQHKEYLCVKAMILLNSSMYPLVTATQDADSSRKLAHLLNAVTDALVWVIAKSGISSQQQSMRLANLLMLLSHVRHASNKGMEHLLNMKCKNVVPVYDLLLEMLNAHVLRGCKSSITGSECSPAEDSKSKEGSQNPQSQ
Ephrin type-A receptor 4, sequence (Q03137 whole entry): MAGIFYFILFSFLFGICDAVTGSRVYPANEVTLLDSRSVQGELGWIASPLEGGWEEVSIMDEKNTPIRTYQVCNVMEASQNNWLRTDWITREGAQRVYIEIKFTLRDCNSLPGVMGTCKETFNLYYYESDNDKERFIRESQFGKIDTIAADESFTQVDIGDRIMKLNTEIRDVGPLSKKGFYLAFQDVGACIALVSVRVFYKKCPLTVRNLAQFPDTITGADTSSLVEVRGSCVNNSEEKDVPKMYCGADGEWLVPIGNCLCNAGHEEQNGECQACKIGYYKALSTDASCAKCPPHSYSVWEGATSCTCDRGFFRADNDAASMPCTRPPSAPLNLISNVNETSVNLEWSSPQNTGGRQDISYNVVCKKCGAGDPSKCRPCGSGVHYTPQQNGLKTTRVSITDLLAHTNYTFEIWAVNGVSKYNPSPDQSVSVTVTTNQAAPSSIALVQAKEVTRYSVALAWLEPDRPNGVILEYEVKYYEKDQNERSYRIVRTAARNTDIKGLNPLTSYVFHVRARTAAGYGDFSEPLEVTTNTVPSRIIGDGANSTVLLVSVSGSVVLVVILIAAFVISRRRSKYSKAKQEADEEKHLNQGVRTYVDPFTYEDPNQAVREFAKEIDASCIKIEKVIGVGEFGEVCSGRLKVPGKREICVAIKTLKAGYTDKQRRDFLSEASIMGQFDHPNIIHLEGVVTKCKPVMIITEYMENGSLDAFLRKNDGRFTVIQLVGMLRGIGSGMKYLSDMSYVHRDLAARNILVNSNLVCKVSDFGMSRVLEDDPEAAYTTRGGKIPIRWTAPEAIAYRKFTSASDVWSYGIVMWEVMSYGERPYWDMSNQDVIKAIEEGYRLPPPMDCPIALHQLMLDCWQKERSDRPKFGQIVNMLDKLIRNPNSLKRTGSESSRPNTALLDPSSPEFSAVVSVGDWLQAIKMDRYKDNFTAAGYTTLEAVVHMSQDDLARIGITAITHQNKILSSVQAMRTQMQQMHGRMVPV
E3 ubiquitin-protein ligase Mdm2, sequence (Q00987 whole entry): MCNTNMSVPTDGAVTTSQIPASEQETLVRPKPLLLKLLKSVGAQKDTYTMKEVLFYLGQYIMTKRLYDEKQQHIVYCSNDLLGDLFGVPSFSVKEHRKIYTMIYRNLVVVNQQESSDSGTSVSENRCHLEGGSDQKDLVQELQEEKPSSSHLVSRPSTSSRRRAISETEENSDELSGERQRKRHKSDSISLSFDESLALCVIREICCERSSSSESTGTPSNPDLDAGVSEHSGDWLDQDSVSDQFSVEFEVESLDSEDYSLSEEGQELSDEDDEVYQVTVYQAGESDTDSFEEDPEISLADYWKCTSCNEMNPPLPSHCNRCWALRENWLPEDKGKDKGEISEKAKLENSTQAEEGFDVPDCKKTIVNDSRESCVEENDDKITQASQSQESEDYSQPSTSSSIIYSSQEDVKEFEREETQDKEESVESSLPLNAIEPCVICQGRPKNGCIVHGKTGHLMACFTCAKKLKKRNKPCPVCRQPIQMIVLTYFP
Likely tRNA 2'-phosphotransferase, sequence (Q5A7N4 whole entry): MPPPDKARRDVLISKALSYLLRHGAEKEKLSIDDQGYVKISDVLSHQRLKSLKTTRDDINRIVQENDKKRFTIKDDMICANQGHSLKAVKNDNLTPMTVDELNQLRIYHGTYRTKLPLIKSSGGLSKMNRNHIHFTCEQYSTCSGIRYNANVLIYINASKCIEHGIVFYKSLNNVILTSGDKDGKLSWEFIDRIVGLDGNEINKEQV
Guanyl-specific ribonuclease T1, sequence (P00651 whole entry): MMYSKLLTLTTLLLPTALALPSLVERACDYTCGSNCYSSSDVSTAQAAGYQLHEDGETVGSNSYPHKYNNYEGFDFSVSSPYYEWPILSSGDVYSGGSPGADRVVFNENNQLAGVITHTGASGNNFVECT

As to `Cc1cc(=O)oc2cc(NC(=O)c3ccccc3Cl)ccc12`, the EC50 in [1] is 345 nM (active); in assay [2], 364 nM (active); in [3] it was < 100 nM (active); in assay [4] it was 208 nM (active).

In the case of `COc1ccc(C2CC(=O)Nc3ccccc3S2(=O)=O)cc1OC` (stereo unspecified), the IC50 on Estrogen receptor beta [5] is 16100 nM (active); at Estrogen receptor beta [6], < 23 nM (not active).

With `Nc1c(C(=O)Nc2ccc(F)cc2)sc2nc(-c3ccco3)ccc12`, the IC50 on Estrogen receptor beta [5] is > 50000 nM (not active); against Estrogen receptor beta [6], > 50000 nM (not active); at Protein skinhead-1 it was > 100000 nM (inactive).

Consider `O=[N+]([O-])c1ccc2c(c1)Sc1ccc(C(F)(F)F)cc1N2`, for which the IC50 at NADPH oxidase 1 was 1410 nM (active).

With `Cc1nn(C(C)C)c(C)c1CN1CCCC(CCC(=O)NCc2ccccc2F)C1` (stereo unspecified), the concentration for a half-maximal effect (EC50) in [7] was < 100 nM (active); in assay [8], > 60000 nM (not active); in the assay “cells” it was < 4 nM (active).

For `O=[N+]([O-])c1ccc(N2N=C(c3ccco3)CC2c2ccccc2)cc1` (stereo unspecified), the concentration for half-maximal inhibition (IC50) on Ephrin type-A receptor 4 is > 100000 nM (not active).

As to `CC(C)n1cnc2c(N(C)c3ccccc3)nc(N(CCN(C)C)Cc3ccccc3)nc21`, the IC50 in assay [9] was > 20000 nM (inactive). Besides, the EC50 in assay [10] is 19300 nM (not active); in assay [11], 10600 nM (active).

On to `O=C(CCC1CCCN(Cc2cccc3c2OCO3)C1)NCc1ccc(F)c(F)c1` (stereo unspecified), for which the results for the EC50 (in assay [7]; in assay [8]; in “cells”) were < 100 nM (active), > 60000 nM (not active) and 216 nM (active), respectively.

Take `CCOc1cc(/C=C2\C(=O)NC(=O)N(CCc3ccc(F)cc3)C2=O)ccc1O`: the figures for the half-inhibitory concentration (IC50) in [12] and in [15] were 28000 nM (not active) and > 55700 nM (not active), respectively. The concentration giving a half-maximal response (EC50) in assay [13] and in assay [14] was > 300000 nM (not active) throughout.

Regarding `Cc1c(NC(=S)N/N=C/c2cccc(O)c2)c(=O)n(-c2ccccc2)n1C`, the half-inhibitory concentration (IC50) on Ephrin type-A receptor 4 is 39500 nM (active).

On to `COc1ccc(/C=N/NC(=O)c2ccc[nH]2)cc1`, for which the EC50 with H4 was < 100 nM (active); in assay [1], 460 nM (active); in [2], 324 nM (active); in assay [16], 155 nM (active); in assay [3] it was 114 nM (active); in assay [4], 343 nM (active).
